Structures can show the parent of a compound that is named as a salt.
These molecules were tested against T1, 5HT2 receptors (Rattus norvegicus, UniProt P14842) (assay: Apparent dissociation constants (KB) against serotonin contraction in rat jugular vein). Settings: serotonin agonist, antagonist incubated one hour, read-out: 5HT2 -Log Kb ± S.E. (converted).
T1 construct: from tissue; host or cells: external jugular vein of male Wistar rats
Format: cell-based
Method: An initial optimum resting force of 1 and 4 g was applied to the jugular veins and aorta, respectively. […] Exp. Ther., 205, 400 (1978). Alpha receptor antagonist activity was evaluated in the aorta.

T1 sequence (P14842 whole entry): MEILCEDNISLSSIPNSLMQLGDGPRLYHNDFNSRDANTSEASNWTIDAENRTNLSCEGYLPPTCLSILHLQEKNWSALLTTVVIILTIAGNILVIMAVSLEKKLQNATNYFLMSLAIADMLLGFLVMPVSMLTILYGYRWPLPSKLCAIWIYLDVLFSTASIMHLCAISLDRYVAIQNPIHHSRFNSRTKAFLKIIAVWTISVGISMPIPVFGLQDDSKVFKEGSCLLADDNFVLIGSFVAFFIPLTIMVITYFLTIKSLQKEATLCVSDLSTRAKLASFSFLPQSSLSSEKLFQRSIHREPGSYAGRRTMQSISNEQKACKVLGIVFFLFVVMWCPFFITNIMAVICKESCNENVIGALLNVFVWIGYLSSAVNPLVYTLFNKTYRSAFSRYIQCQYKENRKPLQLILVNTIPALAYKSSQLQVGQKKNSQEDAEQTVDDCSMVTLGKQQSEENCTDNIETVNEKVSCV

Row | Structure (SMILES) | Kb [nM]
1 | CC(C)n1cc2c3c(cccc31)[C@H]1C[C@@H](C(=O)OCC(=O)c3ccc(-c4ccccc4)cc3)CN(C)[C@@H]1C2 [R^3=H R^4=H R^10=p-phenyl maleate, 4-Phenylphenacyl 1-isopropyl-9,10-dihydrolysergate maleate] | 70.8
2 | CC(C)n1cc2c3c(cccc31)[C@H]1C[C@@H](C(=O)OCC(=O)c3ccc(Cl)cc3)CN(C)[C@@H]1C2 [R^3=H R^4=H R^10=p-Cl maleate, p-Chlorophenacyl 1-isopropyl-9,10-dihydrolysergate maleate] | 34.7
3 | COc1ccc(C(=O)COC(=O)[C@@H]2C[C@@H]3c4cccc5c4c(cn5C(C)C)C[C@H]3N(C)C2)cc1 [R^3=H R^4=H R^10=p-OCH3 maleate, p-Methoxyphenacyl 1-isopropyl-9,10-dihydrolysergate maleate] | 1.29
4 | CC(OC(=O)[C@@H]1C[C@@H]2c3cccc4c3c(cn4C(C)C)C[C@H]2N(C)C1)C(=O)c1ccccc1 (mixture of isomers) [R^3=CH3 R^4=H R^10=H maleate, (±)-α-Methylphenacyl 1-isopropyl-9,10-dihydrolysergate maleate] | 4.57
5 | CC(C)n1cc2c3c(cccc31)[C@H]1C[C@@H](C(=O)OC(C)(C)C(=O)c3ccccc3)CN(C)[C@@H]1C2 [R^3=CH3 R^4=CH3 R^10=H maleate, α,α-Dimethylphenacyl 1-isopropyl-9,10-dihydrolysergate maleate monohydrate] | 14.8
6 | CC(OC(=O)[C@@H]1C[C@@H]2c3cccc4c3c(cn4C(C)C)C[C@H]2N(C)C1)C(=O)c1ccc(O)cc1 (stereo partly drawn) [R^3=CH3 R^4=H R^10=p-OH maleate, α-Methyl-p-hydroxyphenacyl 1-isopropyl-9,10-dihydrolysergate maleate] | 0.347
7 | CC(C)n1cc2c3c(cccc31)[C@H]1C[C@@H](C(=O)OCC(=O)c3ccccc3)CN(C)[C@@H]1C2 [R^3=H R^4=H R^10=H maleate.H2 O, phenacyl 1-isopropyl-9,10-dihydrolysergate maleate monohydrate] | 15.1
8 | CC(C)n1cc2c3c(cccc31)[C@H]1C[C@@H](C(=O)OCC(=O)c3ccc(O)cc3)CN(C)[C@@H]1C2 [R^3=H R^4=H R^10=p-OH maleate.H2 O, p-Hydroxyphenacyl 1-isopropyl-9,10-dihydrolysergate maleate] | 0.138

From patent US4704396A, “Phenacyl esters of 1-substituted-6-(substituted and unsubstituted) dihydrolysergic acids useful as 5HT receptor antagonists” (Eli Lilly and Company, priority 1985, dated 1987)
